According to patent US11186592B2, “Thiazolopyridine derivatives as adenosine receptor antagonists” (MERCK PATENT GMBH, priority 2017, dated 2021):

Legend:
Assay type in all cases: cell-based
[1] = molecular target: T1, human A2B receptor (Homo sapiens, UniProt P29275); assay: cAMP (HTRF) functional assay, recombinant HEK293 cells expressing human A2B receptor, agonist NECA
T1 construct: expressed in transfected cells; host or cells: HEK293
T1 sequence (P29275 1-332): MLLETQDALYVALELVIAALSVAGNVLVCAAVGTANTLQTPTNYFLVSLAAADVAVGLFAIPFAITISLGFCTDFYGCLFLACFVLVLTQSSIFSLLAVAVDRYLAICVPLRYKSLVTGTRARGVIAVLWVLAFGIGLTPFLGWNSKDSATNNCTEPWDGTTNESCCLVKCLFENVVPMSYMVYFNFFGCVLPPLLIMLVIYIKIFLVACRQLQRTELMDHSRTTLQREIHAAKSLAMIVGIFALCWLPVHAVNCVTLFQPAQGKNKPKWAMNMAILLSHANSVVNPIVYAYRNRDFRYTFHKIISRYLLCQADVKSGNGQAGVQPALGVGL
Protocol: (§1) The functional activities of human A2A, A2B, A1 and A3 receptors were determined by quantification of cAMP, being the second messenger for adenosine receptors.
(§2) Cells were seeded into 384-well plates, forskolin, test compounds and agonists (CPA for A1- and IB-MECA for A3-receptor) were added. After 30 min incubation, HTRF reagents (cAMP dynamic 2, Cis Bio) were added and the cellular cAMP levels were determined using the ENVISION (Perkin Elmer) plate reader. Obtained raw data were normalized against the inhibitor control and the neural control (DMSO) and the normalized data were fitted using GeneData software.

[2] = molecular target: T2, human A3 receptor (Homo sapiens, UniProt P0DMS8); assay: cAMP (HTRF) functional assay, recombinant CHO cells expressing human A3 receptor, forskolin + agonist IB-MECA
T2 construct: expressed in transfected cells; host or cells: CHO
T2 sequence (P0DMS8 1-318): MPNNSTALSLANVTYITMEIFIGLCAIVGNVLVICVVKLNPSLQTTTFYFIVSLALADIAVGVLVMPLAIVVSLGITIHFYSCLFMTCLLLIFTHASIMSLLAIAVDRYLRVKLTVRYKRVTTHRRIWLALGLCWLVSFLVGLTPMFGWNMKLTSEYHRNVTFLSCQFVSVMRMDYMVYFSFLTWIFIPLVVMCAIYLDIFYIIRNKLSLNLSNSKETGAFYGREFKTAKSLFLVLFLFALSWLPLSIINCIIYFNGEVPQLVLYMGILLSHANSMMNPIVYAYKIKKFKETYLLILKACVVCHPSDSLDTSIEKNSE
Protocol: as §1
(§3) For human A1 and A3 receptors, recombinant CHO cells, expressing either A1 or A3-receptor, were used. As both receptors couple to Gi proteins, the assay protocol was adapted:
as §2

[3] = molecular target: T3, human A2A receptor (Homo sapiens, UniProt P29274); assay: cAMP (HTRF) functional assay, recombinant HEK293 cells expressing human A2A receptor, agonist NECA
T3 construct: expressed in transfected cells; host or cells: HEK293
T3 sequence (P29274 whole entry): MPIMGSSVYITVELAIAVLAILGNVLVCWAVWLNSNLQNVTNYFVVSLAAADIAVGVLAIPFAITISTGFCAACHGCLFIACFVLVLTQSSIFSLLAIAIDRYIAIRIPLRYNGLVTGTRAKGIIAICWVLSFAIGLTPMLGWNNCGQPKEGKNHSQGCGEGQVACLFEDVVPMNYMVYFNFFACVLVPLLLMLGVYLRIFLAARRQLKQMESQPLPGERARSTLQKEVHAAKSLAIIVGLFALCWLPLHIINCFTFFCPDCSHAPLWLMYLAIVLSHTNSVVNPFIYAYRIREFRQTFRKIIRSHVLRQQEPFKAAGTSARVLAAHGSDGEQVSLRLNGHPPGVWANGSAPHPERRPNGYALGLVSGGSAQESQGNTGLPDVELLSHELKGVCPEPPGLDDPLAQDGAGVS
Protocol: as §1, §2

[4] = molecular target: T4, human A1 receptor (Homo sapiens, UniProt P30542); assay: cAMP (HTRF) functional assay, recombinant CHO cells expressing human A1 receptor, forskolin + agonist CPA
T4 construct: expressed in transfected cells; host or cells: CHO
T4 sequence (P30542 1-326): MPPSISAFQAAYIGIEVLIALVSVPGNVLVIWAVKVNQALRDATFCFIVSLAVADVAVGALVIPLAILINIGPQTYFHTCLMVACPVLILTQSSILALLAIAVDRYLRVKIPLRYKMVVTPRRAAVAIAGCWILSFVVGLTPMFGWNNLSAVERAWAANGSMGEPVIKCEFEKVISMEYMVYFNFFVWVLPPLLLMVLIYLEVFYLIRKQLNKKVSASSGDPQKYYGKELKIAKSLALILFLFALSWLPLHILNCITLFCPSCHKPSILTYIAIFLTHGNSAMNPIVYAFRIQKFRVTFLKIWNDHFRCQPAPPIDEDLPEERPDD
Protocol: as §1, §3, §2

IC50 [1]	IC50 [2]	IC50 [3]	IC50 [4]	Structure (SMILES)
< 100 nM	> 1000 nM	< 10 nM	< 1000 nM	COCc1ccc(C(=O)Nc2nc3c(OC)ncc(C4CCOCC4)c3s2)cc1 [compound 23, 4-Methoxymethyl-N-[4-methoxy-7-(tetrahydro-pyran-4-yl)-thiazolo[4,5-c]pyridin-2-yl]-benzamide]
< 100 nM	< 1000 nM	< 10 nM	< 1000 nM	COCCn1cc(C(=O)Nc2nc3c(OC)ncc(C4CCOCC4)c3s2)cn1 [compound 29, 1-(2-Methoxy-ethyl)-1H-pyrazole-4-carboxylic acid [4-methoxy-7-(tetrahydro-pyran-4-yl)-thiazolo[4,5-c]pyridin-2-yl]-2-amide]
< 100 nM	> 1000 nM	< 10 nM	< 1000 nM	COc1ncc(C2CCOCC2)c2sc(NC(=O)N3CCC(C)(O)CC3)nc12 [compound 30, 4-Hydroxy-4-methyl-piperidine-1-carboxylic acid [4-methoxy-7-(tetrahydro-pyran-4-yl)-thiazolo[4,5-c]pyridin-2-yl]-amide]
< 100 nM	> 1000 nM	< 10 nM	< 1000 nM	COc1ncc(-c2ccccc2)c2sc(NC(=O)N3CCC4(CCCOC4)C3)nc12 (stereo not shown) [compound 52, 7-Oxa-2-aza-spiro[4.5]decane-2-carboxylic acid (4-methoxy-7-phenyl-thiazolo[4,5-c]pyridin-2-yl)-amide]
< 100 nM	> 1000 nM	< 10 nM	> 1000 nM	COc1ncc(-c2ccccc2)c2sc(NC(=O)N3CCC4(CCOCC4)C3)nc12 [compound 53, 8-Oxa-2-aza-spiro[4.5]decane-2-carboxylic acid (4-methoxy-7-phenyl-thiazolo[4,5-c]pyridin-2-yl)-amide]
< 100 nM	> 1000 nM	< 10 nM	< 1000 nM	COc1ncc(-c2ccccc2)c2sc(NC(=O)N3CCC4(CCOC4)C3)nc12 (stereo not shown) [compound 54, 2-Oxa-7-aza-spiro[4.4]nonane-7-carboxylic acid (4-methoxy-7-phenyl-thiazolo[4,5-c]pyridin-2-yl)-amide]
< 10 nM	> 1000 nM	< 10 nM	< 1000 nM	COc1ncc(-c2ccccc2)c2sc(NC(=O)c3ccc(C(=O)N(C)C)cc3)nc12 [compound 58, N-(4-Methoxy-7-phenyl-thiazolo[4,5-c]pyridin-2-yl)-N′,N′-dimethyl-terephthalamide]
< 100 nM	> 1000 nM	< 10 nM	> 1000 nM	COc1ncc(-c2cnn(C)c2)c2sc(NC(=O)N3CCC4(CCOC4)C3)nc12 (stereo not shown) [compound 82, 2-Oxa-7-aza-spiro[4.4]nonane-7-carboxylic acid [4-methoxy-7-(1-methyl-1H-pyrazol-4-yl)-thiazolo[4,5-c]pyridin-2-yl]-amide]
< 100 nM	> 1000 nM	< 10 nM	> 1000 nM	COc1ncc(C2CCOCC2)c2sc(NC(=O)c3ccc(C(=O)N(C)C)cc3)nc12 [compound 113, N-[4-Methoxy-7-(tetrahydro-pyran-4-yl)-thiazolo[4,5-c]pyridin-2-yl]-N′,N′-dimethyl-terephthalamide]
< 100 nM	> 1000 nM	< 10 nM	< 1000 nM	COc1ncc(-c2cnn(C)c2)c2sc(NC(=O)c3cnc(C)o3)nc12 [compound 130, 2-Methyl-oxazole-5-carboxylic acid [4-methoxy-7-(1-methyl-1H-pyrazol-4-yl)-thiazolo[4,5-c]pyridin-2-yl]-amide]
< 100 nM	< 1000 nM	< 100 nM	> 1000 nM	COc1ncc(N2CC3(CCCO3)C2)c2sc(NC(=O)c3cnn(C)c3)nc12 [compound 156, 1-Methyl-1H-pyrazole-4-carboxylic acid [4-methoxy-7-(5-oxa-2-aza-spiro[3.4]oct-2-yl)-thiazolo[4,5-c]pyridin-2-yl]-amide]
< 100 nM	> 1000 nM	< 10 nM	> 1000 nM	COc1ncc(N2CCOCC2)c2sc(NC(=O)C3CC3)nc12 [compound 167, Cyclopropanecarboxylic acid (4-methoxy-7-morpholin-4-yl-thiazolo[4,5-c]pyridin-2-yl)-amide]
< 100 nM	< 1000 nM	< 10 nM	< 1000 nM	COc1ncc(N2CCOCC2)c2sc(NC(=O)c3cnn(C)c3)nc12 [compound 171, 1-Methyl-1H-pyrazole-4-carboxylic acid (4-methoxy-7-morpholin-4-yl-thiazolo[4,5-c]pyridin-2-yl)-amide]
< 100 nM	> 1000 nM	< 10 nM	> 1000 nM	COc1ncc(-c2cnn(C)c2)c2sc(NC(=O)N3CC[C@]4(CCOC4)C3)nc12 [compound 173, (S)-2-Oxa-7-aza-spiro[4.4]nonane-7-carboxylic acid [4-methoxy-7-(1-methyl-1H-pyrazol-4-yl)-thiazolo[4,5-c]pyridin-2-yl]-amide]
< 100 nM	< 1000 nM	< 10 nM	> 1000 nM	COc1ncc(-c2cnn(C)c2)c2sc(NC(=O)C3CC3)nc12 [compound 179, Cyclopropanecarboxylic acid [4-methoxy-7-(1-methyl-1H-pyrazol-4-yl)-thiazolo[4,5-c]pyridin-2-yl]-amide]
< 100 nM	< 1000 nM	< 10 nM	< 1000 nM	COc1ncc(-c2ccccc2)c2sc(NC(=O)c3cnc(C)o3)nc12 [compound 186, 2-Methyl-oxazole-5-carboxylic acid (4-methoxy-7-phenyl-thiazolo[4,5-c]pyridin-2-yl)-amide]
< 100 nM	< 1000 nM	< 10 nM	< 1000 nM	COc1ncc(-c2ccccc2)c2sc(NC(=O)C3CC3)nc12 [compound 187, Cyclopropanecarboxylic acid (4-methoxy-7-phenyl-thiazolo[4,5-c]pyridin-2-yl)-amide]
< 100 nM	< 1000 nM	< 10 nM	< 1000 nM	COc1ncc(-c2ccccc2)c2sc(NC(=O)c3cnc(C)s3)nc12 [compound 190, 2-Methyl-thiazole-5-carboxylic acid (4-methoxy-7-phenyl-thiazolo[4,5-c]pyridin-2-yl)-amide]
< 100 nM	> 1000 nM	< 10 nM	< 1000 nM	COc1ncc(-c2cccc(F)c2)c2sc(NC(=O)N3CCC4(CCOCC4)C3)nc12 [compound 194, 8-Oxa-2-aza-spiro[4.5]decane-2-carboxylic acid [7-(3-fluoro-phenyl)-4-methoxy-thiazolo[4,5-c]pyridin-2-yl]-amide]
< 100 nM	> 1000 nM	< 10 nM	> 1000 nM	COc1ncc(-c2ccccc2F)c2sc(NC(=O)N3CCC4(CCOCC4)C3)nc12 [compound 195, 8-Oxa-2-aza-spiro[4.5]decane-2-carboxylic acid [7-(2-fluoro-phenyl)-4-methoxy-thiazolo[4,5-c]pyridin-2-yl]-amide]
< 100 nM	< 1000 nM	< 10 nM	< 1000 nM	COc1ncc(-c2ccccc2)c2sc(NC(=O)C3(N)CC3)nc12 [compound 203, 1-Amino-cyclopropanecarboxylic acid (4-methoxy-7-phenyl-thiazolo[4,5-c]pyridin-2-yl)-amide]
< 100 nM	> 1000 nM	< 10 nM	< 1000 nM	COc1ncc(-c2ccccc2)c2sc(NC(=O)N3CC[C@@]4(CCCOC4)C3)nc12 [compound 204, (S)-7-Oxa-2-aza-spiro[4.5]decane-2-carboxylic acid (4-methoxy-7-phenyl-thiazolo[4,5-c]pyridin-2-yl)-amide]
